IC50 data for twelve compounds are collected here from patent US20240043448A1, “Small Molecule Inhibitors of KRAS G12C Mutant” (Merck Sharp & Dohme LLC, priority 2019, published 2024).

As usually defined, the IC50 is the concentration that gives 50% inhibition.

The target in test [1] is Biotinylated KRAS G12C protein (Homo sapiens (Human), UniProt P01116, C118S/C51S/C80L/G12C). Description: SOS-catalyzed nucleotide exchange assay (TR-FRET). It is filed as biochemical. The following applies: in vitro apparent potency; preincubation time of 60 minutes prior to addition of SOS. As to the method:
The SOS-catalyzed nucleotide exchange assay utilizes a preformed complex of recombinant biotinylated KRAS protein containing G12C/C51S/C80L/C118S mutations (183 amino acids; biotin on K10; leader sequence which is an AviTag; referred to as SEQ ID NO: 1 or “Biotinylated KRAS G12C protein” hereafter), Bodipy-GDP, and Terbium-streptavidin. Compounds are added to this complex and then after incubation for 60 minutes, the mixture is treated with recombinant SOS protein and unlabeled GTP. Small molecule inhibitors stabilize the Bodipy-GDP complex whereas the untreated protein rapidly exchanges Bodipy-GDP for unlabeled GTP resulting in reduced TR-FRET signal.
Biotinylated KRAS G12C protein (SEQ ID NO: 1) is diluted to 2 μM in an EDTA buffer (20 mM HEPES, 150 mM sodium chloride, 10 mM EDTA, and 0.01% Tween) and incubated at room temperature for one hour. This mixture is then further diluted to 90 nM in an assay buffer (20 mM HEPES, 150 mM sodium chloride, 10 mM magnesium chloride, and 0.005% Tween) containing 15 nM of Terbium-Streptavidin (Invitrogen, catalog #PV3577) and 900 nM of Bodipy-GDP and incubated at room temperature for six hours. This solution is referred to as Biotinylated KRAS G12C mixture.
Each test compound (10 mM stock in DMSO) is diluted in DMSO to make a 10-point, 3-fold dilution series in a 384-well low dead volume microplate (Labcyte, catalog #LP-0200). Once titrations are made, 10 nL of the diluted compounds is acoustically dispensed into a 384-well plate (Corning, catalog #3820) using an Echo 550 (Labcyte).
Each well of the plate receives 3 μL Biotinylated KRAS G12C mixture that had been incubating for six hours and 3 μL of assay buffer using a BioRAPTR (Beckman Coulter) and is incubated at room temperature for 60 minutes. Each well then receives 3 μL of 240 nM recombinant human SOS protein and 9 mM GTP (Sigma, G8877) in assay buffer and is incubated at room temperature for 60 minutes.
The time-resolved fluorescence resonance energy transfer signal of the plate is measured on an Envision (PerkinElmer) plate reader: Excitation filter=340 nm; emission1=495 nm; emission2=520 nm; dichroic mirror=D400/D505; delay time=100 μs. The signal of each well is determined as the ratio of the emission at 520 nm to that at 495 nm. Percent effect of each well is determined after normalization to control wells containing DMSO (no effect) or a saturating concentration of inhibitor (max effect). The apparent effect as a function of compound concentration is fit to a four parameter logistic equation.
A general note: In TR-FRET formats the signal depends on donor and acceptor labels being close together.

Another test relates to phospho-ERK. Description: Cellular phospho-ERK assay. It counts as cell-based. To be noted: NCI-H358 cells, 2 hour incubation, ratio of p-Erk vs total Erk, read-out: IC50 (nM) pERK (Cell). How it is done:
NCI-H358 cells (ATCC® CRL-5807™) were cultured in T150 flask in growth medium (RPMI medium 1640-GlutaMAX™-I (ThermoFisher Scientific 61870) containing 10% fetal bovine serum (ThermoFisher Scientific 10091148)). The cells were harvested in growth medium after TrypLE (ThermoFisher scientific 12604021) digestion and were seeded in a 384-well collagen coated cell culture plate (Corning 356702) at a density of 15,000 cells/well, and incubated at 37° C., 5% CO2 overnight. The compound dose-response titrations were prepared and appropriate amounts of compounds were dispensed in a 384-well intermediate plate using an Echo 550 liquid handler. RPMI medium 1640-GlutaMAX™-I were added to the intermediate plate and transferred to 384-well cell culture plate, which was incubated at 37° C., 5% CO2 for 2 hours. After removal of medium from the plate, cells were lysed in lysis buffer from Alpha SureFire® Ultra™ Multiplex p-Erk and total Erk assay kit (PerkinElmer MPSU-PTERK) containing Halt™ Protease and Phosphotase inhibitor cocktail (ThermoFisher Scientific 78446) at room temperature with constant shaking at 300 rpm for 30 minutes. The cell lysates were then transferred to OptiPlate-384 plate (PerkinElmer 6005620) and the phosphorylation of Erk and total Erk levels were detected by Alpha SureFire Ultra Multiplex p-Erk kit (PerkinElmer MPSU-PTERK) following the manufacturer's protocol. Assay plates were read on an EnVision Multimode Plate Reader (PerkinElmer), and the ratio of p-Erk vs total Erk in each well was used as the final readout. Dose response curves were analyzed using a 4-parameter logistic model to calculate IC50 values using spotfire software.

The structures appear in SMILES notation. Like-named read-outs stand apart in the source and are kept apart here.

Sequence of Biotinylated KRAS G12C protein (P01116 other isoform, or with tags, fused parts or gaps, stated change not applied): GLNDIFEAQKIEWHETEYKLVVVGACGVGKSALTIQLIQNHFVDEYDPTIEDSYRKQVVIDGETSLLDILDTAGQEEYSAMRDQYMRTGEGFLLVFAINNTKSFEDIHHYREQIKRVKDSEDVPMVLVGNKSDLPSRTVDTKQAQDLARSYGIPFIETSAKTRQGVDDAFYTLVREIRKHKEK

Consider `C=CC(=O)N1CCN(c2nc(=O)n3c4nc(c(F)cc24)-c2c(F)cccc2C(=O)NCCCc2ccnc(C(C)C)c2-3)[C@H](C)C1` [Example 19b, 18,21-difluoro-2-[(2S)-2-methyl-4-(prop-2-enoyl)piperazin-1-yl]-6-(propan-2-yl)-10,11,12,13-tetrahydro-1,19-ethenopyrido[3,4-e]pyrimido[6,1-c][2,4,10]benzotriazacyclotridecine-4,14-dione], for which the IC50 was 4520 nM in test [1] and greater than 30000 nM in the test with phospho-ERK.
In the same order, the values of `C=CC(=O)N1CC(C)N(c2nc(=O)n3c4nc(c(Cl)cc24)-c2c(F)ccc(F)c2OCCOc2ccnc(C(C)C)c2-3)CC1C` [Example 50, (5aSa,17aRa)-20-chloro-2-[(2S,5R)-2,5-dimethyl-4-(prop-2-enoyl)piperazin-1-yl]-14,17-difluoro-6-(propan-2-yl)-11,12-dihydro-4H-1,18-(ethanediylidene)pyrido[4,3-e]pyrimido[1,6-g][1,4,7,9]benzodioxadiazacyclododecin-4-one] are 1.1 nM and 4.4 nM.
In the case of `C=CC(=O)N1C[C@@H](C)N(c2nc(=O)n3c4nc(c(Cl)cc24)-c2c(F)ccc(F)c2OCCOc2ccnc(C(C)C)c2-3)C[C@@H]1C` [Example 51-1, (5aSa,17aRa)-20-Chloro-2-[(2S,5R)-2,5-dimethyl-4-(prop-2-enoyl)piperazin-1-yl]-14,17-difluoro-6-(propan-2-yl)-11,12-di[(^2H)hydro](11,12-^2H2)-4H-1,18-(ethanediylidene)pyrido[4,3-e]pyrimido[1,6-g][1,4,7,9]benzodioxadiazacyclododecin-4-one], the IC50 stood at 1 nM in test [1] and 13 nM in the test with phospho-ERK.
For `C=CC(=O)N1C[C@H](C)N(c2nc(=O)n3c4nc(c(F)cc24)-c2c(F)cccc2OCC(F)(F)CCc2ccnc(C(C)C)c2-3)C[C@H]1C` [Example 52, (5aRa,18aRa)-2-[(2S,5R)-2,5-dimethyl-4-(prop-2-enoyl)piperazin-1-yl]-12,12,18,21-tetrafluoro-6-(propan-2-yl)-10,11,12,13-tetrahydro-4H-1,19-(ethanediylidene)pyrido[4,3-f]pyrimido[1,6-h][1,8,10]benzoxadiazacyclotridecin-4-one], the figures for the IC50 (in test [1]; in the test with phospho-ERK) were 1.8 nM and 9.3 nM, respectively.
For `C=CC(=O)N1CC(C)N(c2nc(=O)n3c4nc(c(F)cc24)-c2c(ccc(F)c2F)OCC(F)(F)CCc2ccnc(C(C)C)c2-3)CC1C` [Example 54, (5aRa,18aRa)-2-[(2S,5R)-2,5-dimethyl-4-(prop-2-enoyl)piperazin-1-yl]-12,12,17,18,21-pentafluoro-6-(propan-2-yl)-10,11,12,13-tetrahydro-4H-1,19-(ethanediylidene)pyrido[4,3-f]pyrimido[1,6-h][1,8,10]benzoxadiazacyclotridecin-4-one] the same measures were 2.4 nM and 16 nM.
On to `C=CC(=O)N1CC(C)N(c2nc(=O)n3c4nc(c(F)cc24)-c2c(F)ccc(F)c2OCC(F)(F)CCc2ccnc(C(C)C)c2-3)CC1C` [Example 55, (5aRa,18aRa)-2-[(2S,5R)-2,5-dimethyl-4-(prop-2-enoyl)piperazin-1-yl]-12,12,15,18,21-pentafluoro-6-(propan-2-yl)-10,11,12,13-tetrahydro-4H-1,19-(ethanediylidene)pyrido[4,3-f]pyrimido[1,6-h][1,8,10] benzoxadiazacyclotri-decin-4-one], for which the concentration for half-maximal inhibition (IC50) came to 2.7 nM in test [1] and 29 nM with phospho-ERK (Homo sapiens, NCI-H358, 2 h).
In the same order, the values of `C=CC(=O)N1CC(C)N(c2nc(=O)n3c4nc(c(F)cc24)-c2c(F)cc(F)cc2OCC(F)(F)CCc2ccnc(C(C)C)c2-3)CC1C` [Example 56, (5aRa,18aRa)-2-[(2S,5R)-2,5-dimethyl-4-(prop-2-enoyl)piperazin-1-yl]-12,12,16,18,21-pentafluoro-6-(propan-2-yl)-10,11,12,13-tetrahydro-4H-1,19-(ethanediylidene)pyrido[4,3-f]pyrimido[1,6-h][1,8,10] benzoxadiazacyclotri-decin-4-one] are 1.1 nM and 8 nM.
Turning to `[2H]C1([2H])Oc2ccc(F)c(F)c2-c2nc3c(cc2Cl)c(N2CC(C)N(C(=O)C=C)CC2C)nc(=O)n3-c2c(ccnc2C(C)C)OC1([2H])[2H]` [Example 57, (5aSa,17aRa)-20-chloro-2-[(2S,5R)-2,5-dimethyl-4-(prop-2-enoyl)piperazin-1-yl]-16,17-difluoro-6-(propan-2-yl)-11,12-di[(^2H)hydro](11,12-^2H2)-4H-1,18-(ethanediylidene)pyrido [4,3-e]pyrimido[1,6-g] [1,4,7,9]benzodioxadiaza-cyclododecin-4-one], the IC50 in test [1] came to 0.51 nM; with phospho-ERK (Homo sapiens, NCI-H358, 2 h) it was 6.1 nM.
Take `C=CC(=O)N1C[C@H](C)N(c2nc(=O)n3c4nc(c(F)cc24)-c2c(ccc(F)c2F)OCC(F)(F)CCc2ncnc(C(C)C)c2-3)C[C@H]1C` [Example 58, 2-[(2S,5R)-2,5-dimethyl-4-(prop-2-enoyl)piperazin-1-yl]-12,12,17,18,21-pentafluoro-6-(propan-2-yl)-10,11,12,13-tetrahydro-4H-1,19-(ethanediylidene)dipyrimido [4,5-f:1′,6′-h][1,8,10] benzoxadiazacyclo-tridecin-4-one]: the IC50 amounted to 0.74 nM in test [1] and 14 nM with phospho-ERK (Homo sapiens, NCI-H358, 2 h).
`C=CC(=O)N1C[C@H](C)N(c2nc(=O)n3c4nc(c(Cl)cc24)-c2c(F)cccc2OCC(F)(F)COc2ccnc(C(C)C)c2-3)C[C@H]1C` [Example 59, 21-chloro-2-[(2S,5R)-2,5-dimethyl-4-(prop-2-enoyl)piperazin-1-yl]-12,12,18-trifluoro-6-(propan-2-yl)-12,13-dihydro-4H,11H-1,19-(ethanediylidene)pyrido[4,3-f]pyrimido[1,6-h][1,5,8,10] benzodioxadiazacyclo-tridecin-4-one]: the IC50 in test [1] stood at 0.91 nM; with phospho-ERK (Homo sapiens, NCI-H358, 2 h), 6.1 nM.
With `C=CC(=O)N1C[C@H](C)N(c2nc(=O)n3c4nc(c(F)cc24)-c2c(F)cccc2OCC2(CCc4ccnc(C(C)C)c4-3)CC2)C[C@H]1C` [Example 60, 2′-[(2S,5R)-2,5-dimethyl-4-(prop-2-enoyl)piperazin-1-yl]-18′,21′-difluoro-6′-(propan-2-yl)-10′,11′-dihydro-4′H,13′H-spiro[cyclopropane-1,12′-[14]oxa[3,5,7,20]tetraaza[1,19] (ethanediylidene)pyrido[4,3-f]pyrimido[1,6-h][1,8,10]benzoxadiazacyclotri-decin]-4′-one], the IC50 was 1.5 nM in test [1] and 17 nM with phospho-ERK (Homo sapiens, NCI-H358, 2 h).
With `C=CC(=O)N1C[C@H](C)N(c2nc(=O)n3c4nc(c(F)cc24)-c2c(F)ccc(F)c2OCC2(CCc4ccnc(C(C)C)c4-3)CC2)C[C@H]1C` [Example 61, 2′-[(2S,5R)-2,5-dimethyl-4-(prop-2-enoyl)piperazin-1-yl]-15′,18′,21′-trifluoro-6′-(propan-2-yl)-10′,11′-dihydro-4′H,13′H-spiro[cyclopropane-1,12′-[14]oxa [3,5,7,20]tetraaza[1,19] (ethanediylidene)pyrido[4,3-f]pyrimido[1,6-h][1,8,10]benzoxadiazacyclotri-decin]-4′-one], the IC50 worked out at 2.3 nM in test [1] and 43 nM in the test with phospho-ERK (Homo sapiens, NCI-H358, 2 h).
